Source: ChEMBL document CHEMBL5614382, “Discovery of a new 1-(phenylsulfonyl)-1H-indole derivative targeting the EphA2 receptor with antiproliferative activity on U251 glioblastoma cell line” (Eur J Med Chem, 2024)
The source made the active and inactive calls. The rule behind the calls is not given here.

Experiments:
U-251 = assay: Effect on EphA2 protein level in human U-251 cells in presence of ephrin-A1 at 30 uM incubated for 4 hrs by ELISA assay; format: functional, cell-based
LOUCY = assay: Antiproliferative activity against human LOUCY cells harbouring EPHA2 knockout assessed as reduction in cell viability at 1 to 10 uM measured after 72 hrs by Celltiter-glo ATP based assay; format: functional; details: dose 1-10 µM

In the case of `C[C@H](CCC(=O)N[C@H](CC(=O)O)Cc1cn(S(=O)(=O)c2ccc(C(F)(F)F)cc2)c2ccccc12)[C@H]1CC[C@H]2[C@@H]3CC=C4C[C@@H](O)CC[C@]4(C)[C@H]3CC[C@]12C`, the Activity (U-251) is reported as “inactive” and the Activity (LOUCY) is reported as “inactive”.
